Measured values reported in patent US20070098735A1, “Methods for the Elimination of Pathogens and Other Particulate Agents” (priority 2005, published 2007).

Legend:
[1] = tested on: full thickness wounds of naïve mice; assay: Adoptive transfer of pre-treated RAW 264.7 macrophages into wounded mice, wound closure; format: in vivo
Description: Macrophage Cell Culture, Pre-treatment, and Adoptive Transfer. RAW 264.7 macrophages (ATCC) were grown as described by ATCC. Cells were harvested by gently scraping them from the cell culture flasks, centrifuged and washed once in cultured grade PBS. […] They were then washed 3 times with PBS, and were re-suspended to achieve a concentration of 400,000, 40,000, or 4,000 cells per 0.5 ml PBS. Adoptive transfer of these cells was performed by subcutaneous injections in the nape of the neck using a 25-gauge needle in mice that were wounded as previously described. Adoptive transfers were given on days 0, 2 and 4 post-operatively.
Macrophages were treated in vitro with either HSPs or non-HSP controls and transferred into naïve wounded mice (as described in Materials and Methods) to test if HSPs could in part mediate some of their activity through macrophages. […] Data is plotted as average percent wound closure ±SEM on day 2. *P values were obtained using the Student's t-test by comparing HSP treatment to all of the non-HSP control treatments. The least significant P value was reported.
Titratability of adoptive transfer was examined by transferring 4,000, 40,000 or 400,000 macrophages pre-treated as described in Materials and Methods.

[2] = tested on: RAW 264.7 macrophages; assay: In vitro macrophage phagocytosis of wound debris; format: cell-based, murine; conditions: RAW264.7, labeled wound debris, 37° C.
[3] = tested on: full thickness surgical wounds on the dorsum of BALB/cJ mice; assay: Closure of full thickness surgical wounds, percent wound closure; format: in vivo
Description: Surgery and Treatment. Mice were anesthetized using Ketamine (2.0 mg/mouse) and Xylazine (0.1 mg/mouse) were administered intraperitoneally (IP) and the dorsal skin was shaved. After sterile prepping of the area, a full thickness circular wound, 8 mm diameter, was made on the dorsal skin using a disposable biopsy punch (Miltex Inc, York, Pa.) on the midline of the dorsum approximately at the iliac crest. The mice were then randomly assigned into the treatment groups. Initial wound measurements were performed while the mice were still anesthetized. Mice were then treated on days 0, 2, 4, and 6 unless otherwise specified. All agents used as treatment were diluted in 0.5 ml of PBS and injected using a 25-gauge needle in the subcutaneous space in the nape of the neck. The surgical procedures, post-operative monitoring, and safety concerns were approved by the Institutional Animal Care and Usage Committee.
Measurements and Analysis. Wound healing of open wounds is a complex process with many parameters to consider. […] The wound surface area was determined by measuring the craniocaudal and lateromedial distances using vernier calipers in perpendicular axis on days 0, 2, 4, 6, 9, and 11 postoperatively unless noted. Changes in wound area were expressed as percent wound closure. Wound closure data was plotted as average percent wound closure ±SEM unless otherwise noted. All calculations and data analysis were performed using Microsoft Excel and Sigma Plot. Sigma Plot was used to perform Student's t-tests for reported P values.
Full thickness surgical wounds were created on the dorsum of BALB/cJ mice as described in Methods. Wounds were made on day 0. Subsequently, the wounds were treated with exogenous injections of HSP70, HSP90, gp96 (30 μg/dose) or buffer administered subcutaneously (SC) on days 0, 2, 4 and 6 following surgery (FIG. 6A). The wounds were measured on days 0, 2, 4, 6, 9, 11 unless otherwise noted. Wounds were measured serially, percent wound closure was calculated and plotted against time in order to quantitate the rate of healing by secondary intention. […] Data is plotted as average percent wound closure ±SEM on days indicated. Two mice from each treatment group (PBS (n=12), HSP70 (n=11), HSP90 (n=12), and gp96 (n=11)) were sacrificed for histology on days 2, 4, and 6 post-surgery (data not shown). The P values obtain using the Student's t-test.
Results are of average percent wound closure ±SEM on day 2 post surgery. The *P values were obtained using the Student's t-test by comparing HSP treatment to all of the non-HSP control treatments. The least significant P value was reported. […] Doses higher than 50 μg/dose were not tested.

[4] = tested on: lipid raft (LR) microdomain of the macrophage plasma membrane; assay: Binding of exogenous HRP-labeled HSP70 to purified lipid raft fractions; parameters: species or system murine; conditions: HRP-labeled HSP70 100 μg/ml; with ganglioside GM1; Brij98 or Triton X-100
Description: Purification of lipid rafts. Lipid rafts were purified as DRMs (detergent resistant membrane) using non-ionic detergents following sucrose gradient centrifugation. […] After incubation, cells were washed 3× with PBS and lysed with 2 ml MES (4-morpholinoethanesulfonic acid) buffered saline (MBS; 150 mM NaCl, 20 mM MES, pH 6.5, […] and 5 mM iodoacetamide) containing 0.5% Triton X-100 or 1% for 30 minutes on ice or 7 minutes at 37° C. respectively. The cells were mixed with an equal volume of 90% sucrose in MEB buffer (150 mM NaCl, 20 mM MES [pH 6.5]) and placed at the bottom of the centrifuge tube. […] Fractions of 1 ml each were collected from the bottom of tube and each fraction was analyzed by SDS-PAGE and immunoblotting.
Briefly, RAW264.7 macrophages were treated with exogenous HRP-labeled HSP70 (100 μg/ml) or were left untreated for 60 minutes and washed with PBS three times to remove free HSPs. […] These fractions obtained (light: LR and heavy: non-LR) were then analyzed using immunoblotting to detect HRP activity of HSP70-HRP complexes or tested for the presence of an LR-associated ganglioside GM1 by using HRP-cholera toxin B. Similarly, these fractions were tested for the amount of cholesterol using (Biovision Research Products, CA). […]

With “HSP70: heat shock protein purified from murine livers, prepared as a complex with endogenous peptide” the “titratability of adoptive transfer by cell number” value ([1]; 4,000, 40,000 or 400,000 pre-treated macrophages) was “Increasing the number of HSP pretreated cells increases the percentage of wound closure”, the “early wound closure after adoptive transfer of pre-treated macrophages” value ([1]; 400,000 macrophages pre-treated at 30 μg/dose) was “significantly accelerated early wound closure” and the “wound healing on day 2 after adoptive transfer of pre-treated macrophages” value ([1]; 400,000 macrophages pre-treated at 30 μg/dose, day 2 post surgery) was 62%. The “increase in phagocytosed wound debris compared to controls” value [2] was 25%, the “wound closure compared to controls” value ([3]; 5 μg/dose and 50 μg/dose, day 2) was “significant wound closure” and the “wound healing at Day 11” value ([3]; 30 μg/dose SC on days 0, 2, 4 and 6) was “completely healed”. The “dose with the most significant difference in wound closure” value ([3]; doses 5, 30, 50 μg/dose tested) was 30 μg/dose and the “localisation of exogenously administered HSP70” value [4] was “co-localized on the LR-microdomain of the macrophage plasma membrane”.
